Results taken from patent US10098900B2, “Pharmaceutical compositions and their use for treatment of cancer and autoimmune diseases” (ZHEJIANG DTRM BIOPHARMA CO. LTD., priority 2015, dated 2018).
Marks after values point to notes of the source that are not given here.

Key:
[1] = system: TMD-8 lymphoma xenograft; test: Inhibition of tumor growth in vivo, TMD-8 lymphoma xenograft SCID mouse model; conditions: TMD-8, Oral, BID
Protocol: Inhibition Study of Tumor Growth In Vivo:
SCID mice or nude mice (weighing about 18 g at the beginning of the experiment) were randomly divided into groups by the software in order to achieve close average weights between groups and control the bias within the allowable range. The mice were injected BTK cell lines (TMD-8, WSU-DLCL2 and DoHH-2) for tumor formation. Inhibitors were administered orally once or twice a day, a total of 14 days, 21 days or 28 days. Body weights and tumor volume were recorded.
Xenograft Tumor Models Inoculated with TMD-8, or DoHH2, or WSU-DLCL2 Tumor Cell Lines:
TMD-8 is a sensitive human diffuse large B-cell lymphoma cell line, and DoHH2 is a more difficult to treat human follicular lymphoma cell line, while WSU-DLCL2 is a multi-drug resistant (MDR) human non-Hodgkin's lymphoma cell line. Drug combination therapies provide better efficacies in all three tumor models than single targeted agent alone.
The TMD-8, DoHH2, WSU-DLCL2 tumor cells were maintained in vitro as a suspension culture in RPMI-1640 medium supplemented with 10% heat inactivated fetal calf serum at 37° C. in an atmosphere of 5% CO2 in air. The tumor cells were routinely subcultured twice weekly. The cells growing in an exponential growth phase were harvested and counted for tumor inoculation. Each mouse was inoculated subcutaneously at the right flank with the tumor cells (10×10^6) in 0.2 ml of PBS with Matrigel (1:1) for tumor development. The treatments were started after the average tumor size reached approximately 100-200 mm^3. Each group consisted of 6-10 tumor-bearing mice. The testing article (vehicle, compound or combination) was orally administrated to the mice according to the predetermined doses for 14-days or 21-days. Animal body weight and tumor volume were measured every 2- or 3-days throughout the treatment.

[2] = system: adjuvant-induced arthritis; test: Adjuvant-induced arthritis (AA/AIA) model in female Lewis rats (paw volume, clinical score, histopathology); assay type: in vivo, rat; parameters: Pathological score (Mean ± SEM), Inflammatory cell infiltration / Pathological score (Mean ± SEM), Pannus growth / Pathological score (Mean ± SEM), Cartilage injury / Pathological score (Mean ± SEM), Bone resorption / Pathological score (Mean ± SEM), Total: scale not given here; conditions: for Paw volume (mL), Mean: 5 mg/kg BID
From the text: Adjuvant-Induced Arthritis AA Model: […] All rats except the normal group were immunized with complete Freund's adjuvant (CFA) subcutaneously at the left hind paw to induce arthritis at day 0. […] The treatments were given orally for 3 consecutive weeks. The body weight, paw volume and clinical score were monitored every other day after day 13 throughout the course of the study. At the terminal point, right hind paws were collected for histopathology analysis with H.E. staining.

C=CC(=O)N1CC[C@@H](n2nc(-c3ccc(Oc4c(F)c(F)cc(F)c4F)cc3F)c3c(N)ncnc32)C1 [Compound 3, 1-((R)-3-(4-amino-3-(2-fluoro-4-(2,3,5,6-tetrafluorophenoxy)phenyl)-1H-pyrazolo[3,4-d]pyrimidin-1-yl)pyrrolidin-1-yl)prop-2-en-1-one]
Antitumor effect (%) ([1]; FIG. 2, 14 days, 10 mg/kg): 63%
Antitumor effect (%) ([1]; FIG. 2, 14 days, 30 mg/kg): 89%
Antitumor effect (%) ([1]; FIG. 3, 21 days, 5 mg/kg): 90%
Antitumor effect (%) ([1]; FIG. 3, 21 days, 10 mg/kg): 96%
Antitumor effect (%) ([1]; FIG. 4, 21 days, 10 mg/kg): 77%
Antitumor effect (%) ([1]; FIG. 12, 14 days, 5 mg/kg): 75%
Paw volume (mL), Mean ([2]; Day 0): 1.04 mL
Paw volume (mL), Mean ([2]; Day 17): 1.87 ns mL
Paw volume (mL), Mean ([2]; Day 26): 2.29** mL
Paw volume (mL), Mean ([2]; Day 28): 2.12*** mL
Paw volume (mL), Mean ([2]; Day 31): 2.12*** mL
Paw volume (mL), Mean ([2]; Day 33): 2.09*** mL
effect on paw volume ([2]; AA rats model, FIG. 13): absent
Pathological score (Mean ± SEM), Bone resorption ([2]; AA study, 3 alone, 5 mg/kg): 3.0 ± 0.45
Pathological score (Mean ± SEM), Cartilage injury ([2]; AA study, 3 alone, 5 mg/kg): 2.8 ± 0.51
Pathological score (Mean ± SEM), Inflammatory cell infiltration ([2]; AA study, 3 alone, 5 mg/kg): 3.5 ± 0.34
Pathological score (Mean ± SEM), Pannus growth ([2]; AA study, 3 alone, 5 mg/kg): 3.2 ± 0.53
Pathological score (Mean ± SEM), Total ([2]; AA study, 3 alone, 5 mg/kg): 12.5 ± 1.78
